Values of other authors in paper PMC3086271 (Biochemical Journal, 2011).
Where two headings read alike, the source gives them in different places. One block for each molecule: values may come before it.

Columns and labels:
[1] = tested on: mean arterial blood pressure; settings: spontaneous hypertensive rat, intravenous, 10 mg/kg of body weight
[2] = target: C-ACE of human somatic ACE; settings: read-out: Ki for C-ACE
[3] = target: N-ACE of human somatic ACE; settings: read-out: Ki for N-ACE

SMILES: O=C(N[C@@H](Cc1ccccc1)P(=O)(O)CC(Cc1cc(-c2ccccc2)no1)C(=O)N[C@@H](Cc1ccc(O)cc1)C(=O)O)OCc1ccccc1 (stereo partly drawn) [FII, (2S)-2-({3[hydroxyl(2-phenyl-(1R)-1-{[(benzyloxy)carbonyl]-amino}ethyl)phosphinyl]-2-[(3-phenylisoxazol-5-yl)methyl]-1-oxo-propyl}amino)-3-(4-hydroxy-phenyl) propanoic acid]
lowering of mean arterial blood pressure as compared with controls [1]: 24±2 mmHg

Ki ([2]; C-ACE-specific phosphinic inhibitor): 3 nM
Ki [3]: 2500 nM
SMILES: O=C(N[C@@H](Cc1ccccc1)P(=O)(O)C1CCCC1C(=O)N[C@@H](Cc1c[nH]c2ccccc12)C(=O)O)OCc1ccccc1 (some centres unmarked) [RXPA380]

Ki ([2]; C-ACE of human somatic ACE): 2.4 nM
Ki ([3]; N-ACE of human somatic ACE): 44 nM
SMILES: NCCCC[C@H](N[C@@H](CCc1ccccc1)C(=O)O)C(=O)N1CCC[C@H]1C(=O)O [lisinopril]
